Among the test systems are OVCAR-8 ovarian; IGROV1 ovarian; SK-MEL-5 melanoma; RPMI-8226 leukemia; HOP-62 NSCLC; SNB-75 CNS; SF-295 CNS; CCRF-CEM leukemia; LOX IMVI melanoma; CAKI-1 renal.
Test in all cases: inhibition of tumour cell growth, NCI panel, 48 h

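A five-concentration, 48-hour dose response in 96-well plates underlies each endpoint, interpolated linearly between surrounding concentrations. At the TGI there is no net growth.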 Where a SMILES comes first, the peptide text is derived from it. [ ]: non-standard residue; d: D form. The star is where a group is joined. mTyr = N[CH](Cc1cccc(O)c1)C(=O)O; Cbz = O=C(OCc1ccccc1)*; OBn = c1ccc(CO*)cc1

As to `CCNC1=C(NC(=O)CC)C(=O)c2ccccc2C1=O`, the TGI with OVCAR-8 ovarian, in the assay with IGROV1 ovarian, in the assay with SK-MEL-5 melanoma, in the assay with RPMI-8226 leukemia, with HOP-62 NSCLC and with SNB-75 CNS was over 100 µM throughout. For the same compound, the TGI with SF-295 CNS and with CCRF-CEM leukemia was over 100 µM throughout.
As to `O[C@H]1[C@H](O)[C@@H](O)[C@@]2(O)C[C@@H](O)[C@@H]1N2`, the TGI in the assay on OVCAR-8 ovarian, with IGROV1 ovarian, with SK-MEL-5 melanoma, in the assay on HOP-62 NSCLC, in the assay on SNB-75 CNS and with SF-295 CNS was over 100 µM throughout. Further, the TGI in the assay on LOX IMVI melanoma and with CCRF-CEM leukemia was over 100 µM throughout.
`c1ccc(CSCCc2ccncc2)cc1`: the TGI in the assay on OVCAR-8 ovarian, with IGROV1 ovarian, in the assay with SK-MEL-5 melanoma, with RPMI-8226 leukemia, in the assay on HOP-62 NSCLC and in the assay with SF-295 CNS was over 100 µM throughout. Moreover, the TGI in the assay with LOX IMVI melanoma and in the assay on CCRF-CEM leukemia was over 100 µM in each case.
For `COC(=O)C(Cc1cccc(O)c1)NC(=O)C(CC(=O)OCc1ccccc1)NC(=O)OCc1ccccc1` (configuration not stated) (Cbz-Asp(OBn)-[mTyr]-OMe; configuration not given here), the TGI with OVCAR-8 ovarian, in the assay on IGROV1 ovarian, with SK-MEL-5 melanoma, with RPMI-8226 leukemia, in the assay with HOP-62 NSCLC and in the assay on SNB-75 CNS was over 100 µM throughout.
`COc1ccc(N=C2C(=Nc3ccc(OC)cc3)N(c3ccccc3)C(=S)N2N=C=C2Sc3ccccc3N2C)cc1`: the TGI in the assay on OVCAR-8 ovarian, with IGROV1 ovarian, with SK-MEL-5 melanoma, in the assay on RPMI-8226 leukemia, with HOP-62 NSCLC and with CAKI-1 renal was over 100 µM each time. This compound showed a TGI with SF-295 CNS of over 100 µM.
As to `Cc1nc(-c2ccc(N=Cc3ccc(N(CCOS(C)(=O)=O)CCOS(C)(=O)=O)cc3C)cc2)cs1`, the TGI in the assay with OVCAR-8 ovarian was over 100 µM; in the assay with IGROV1 ovarian, over 100 µM; with SK-MEL-5 melanoma, 38.5 µM; with RPMI-8226 leukemia, over 100 µM; in the assay with HOP-62 NSCLC it was over 100 µM; in the assay on SNB-75 CNS it was over 100 µM. The TGI with SF-295 CNS, in the assay on LOX IMVI melanoma and in the assay on CCRF-CEM leukemia was over 100 µM throughout.
`CCOC(=O)CSc1nnc(C(Sc2nc(-c3ccccc3)c(-c3ccccc3)[nH]2)C(C)C)n1-c1ccccc1` (configuration not stated): the TGI in the assay on OVCAR-8 ovarian is over 31.6 µM; in the assay with IGROV1 ovarian it was over 10 µM; in the assay on SK-MEL-5 melanoma it was over 10 µM; with RPMI-8226 leukemia, over 86.9 µM; with HOP-62 NSCLC, over 10 µM; in the assay with SNB-75 CNS, over 10 µM. The TGI is over 10 µM in the assay with SF-295 CNS, 19.9 µM with LOX IMVI melanoma and 28.4 µM in the assay on CCRF-CEM leukemia.
Consider `CCCc1ccc(NCc2cc(OC)c(OC)c(OC)c2)cc1`, for which the TGI was over 100 µM with OVCAR-8 ovarian; over 100 µM in the assay on IGROV1 ovarian; 32.5 µM with SK-MEL-5 melanoma; 37 µM with RPMI-8226 leukemia; over 100 µM with HOP-62 NSCLC; 94.8 µM in the assay on SNB-75 CNS. Also, the TGI is 30.7 µM with LOX IMVI melanoma and 49 µM in the assay on CCRF-CEM leukemia.
For the compound `Cc1cc(NCCCCCCCNc2cc(C)nc3cc([N+](=O)[O-])ccc23)c2ccc([N+](=O)[O-])cc2n1`, the TGI in the assay on OVCAR-8 ovarian was found to be 3.85 µM; in the assay with IGROV1 ovarian, 37.1 µM; in the assay with SK-MEL-5 melanoma, 29.9 µM; in the assay with HOP-62 NSCLC, 42 µM; in the assay on CAKI-1 renal, 65.2 µM; in the assay on SNB-75 CNS, 40.9 µM. Also, the TGI was 26.4 µM in the assay with SF-295 CNS and 5.69 µM with LOX IMVI melanoma.
Consider `CC(C)(CC(O)C#N)/[N+]([O-])=[N+](\[O-])C(C)(C)CC(O)C#N` (configuration not stated), for which the TGI in the assay on OVCAR-8 ovarian is over 100 µM; in the assay with IGROV1 ovarian it was 49.6 µM; in the assay with SK-MEL-5 melanoma it was over 100 µM; in the assay on RPMI-8226 leukemia, 44.8 µM; in the assay on HOP-62 NSCLC, 37.9 µM; in the assay on CAKI-1 renal, 30.4 µM. In addition, the TGI in the assay with SNB-75 CNS is 76.2 µM; in the assay with SF-295 CNS, over 100 µM; with LOX IMVI melanoma, 42.7 µM.
For `CC(C)(C)OC(=O)NCCC1CN(C(=O)c2ccccc2)c2ccccc21` (configuration not stated), the TGI is 67.8 µM in the assay with OVCAR-8 ovarian; over 100 µM in the assay on IGROV1 ovarian; 32 µM with SK-MEL-5 melanoma; 54.4 µM in the assay on RPMI-8226 leukemia; 83.2 µM in the assay on HOP-62 NSCLC; over 100 µM in the assay with CAKI-1 renal. Moreover, the figures for the TGI in the assay on SNB-75 CNS and in the assay with SF-295 CNS were 75.2 µM and over 100 µM, respectively.
In the case of `CCOC(=O)c1ccc(C(=O)C(C(C)=O)C(=O)OC(C)(C)C)[nH]1` (configuration not stated), the TGI in the assay on OVCAR-8 ovarian, in the assay on IGROV1 ovarian, with SK-MEL-5 melanoma, in the assay on RPMI-8226 leukemia, with HOP-62 NSCLC and in the assay with CAKI-1 renal was over 100 µM in each case. Further, the TGI with SNB-75 CNS, in the assay on SF-295 CNS and in the assay with LOX IMVI melanoma was over 100 µM each time.

Source of the values: PubChem BioAssay (NCI).
